Measured values as given in paper PMC8515367 (ACS Omega, 2021).
Substitutions are numbered along the chain they refer to. Where “and” joins values, the source holds several entries; their conditions need not be identical. Equal entries are not always repeated. Where two headings read alike, the source gives them in different places.

Assays:
M42F/G121V-ecDHFR [1] = molecular target: T1, M42F/G121V-ecDHFR (Escherichia coli, UniProt P0ABQ4, G121V/M42F); assay: Double-mutant cycle analysis of ligand binding; conditions: A′ = M42F, B′ = G121V
T1 sequence (P0ABQ4 1-159 M42F/G121V): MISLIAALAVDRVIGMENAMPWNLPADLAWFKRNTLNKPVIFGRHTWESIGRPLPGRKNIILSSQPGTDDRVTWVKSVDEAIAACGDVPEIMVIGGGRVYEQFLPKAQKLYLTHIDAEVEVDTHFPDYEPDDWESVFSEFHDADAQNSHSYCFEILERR

T113V/G121V-ecDHFR [2] = molecular target: T2, T113V/G121V-ecDHFR (Escherichia coli, UniProt P0ABQ4, G121V/T113V); assay: Ligand-binding assay, tryptophan fluorescence titration
T2 sequence (P0ABQ4 1-159 T113V/G121V): T1 sequence (P0ABQ4 1-159 M42F/G121V) with F42M, T113V

G121V-ecDHFR [3] = molecular target: T3, G121V-ecDHFR (Escherichia coli, UniProt P0ABQ4, G121V); assay: as above
T3 sequence (P0ABQ4 1-159 G121V): T1 sequence (P0ABQ4 1-159 M42F/G121V) with F42M

M42F-ecDHFR = molecular target: T4, M42F-ecDHFR (Escherichia coli, UniProt P0ABQ4, M42F); assay: as above
T4 sequence (P0ABQ4 1-159 M42F): T1 sequence (P0ABQ4 1-159 M42F/G121V) with V121G

T113V-ecDHFR = molecular target: T5, T113V-ecDHFR (Escherichia coli, UniProt P0ABQ4, T113V); assay: as above
T5 sequence (P0ABQ4 1-159 T113V): T1 sequence (P0ABQ4 1-159 M42F/G121V) with F42M, T113V, V121G

T113V/G121S-ecDHFR [4] = molecular target: T6, T113V/G121S-ecDHFR (Escherichia coli, UniProt P0ABQ4, G121S/T113V); assay: Double-mutant cycle analysis of ligand binding; conditions: A′ = T113V, B′ = G121S
T6 sequence (P0ABQ4 1-159 T113V/G121S): T1 sequence (P0ABQ4 1-159 M42F/G121V) with F42M, T113V, V121S

wildtype ecDHFR [5] = molecular target: T7, wildtype ecDHFR (Escherichia coli, UniProt P0ABQ4); conditions: read-out: KD^NADPH, previous reports; cited from earlier work
T7 sequence (P0ABQ4 1-159): T1 sequence (P0ABQ4 1-159 M42F/G121V) with F42M, V121G

M42F/G121V-ecDHFR [6] = molecular target: T1, M42F/G121V-ecDHFR; assay: Ligand-binding assay, tryptophan fluorescence titration
T113V/G121S-ecDHFR [7] = molecular target: T6, T113V/G121S-ecDHFR; assay: as above
G121S-ecDHFR [8] = molecular target: T8, G121S-ecDHFR (Escherichia coli, UniProt P0ABQ4, G121S); conditions: cited from earlier work
T8 sequence (P0ABQ4 1-159 G121S): T1 sequence (P0ABQ4 1-159 M42F/G121V) with F42M, V121S

T113V/G121V-ecDHFR [9] = molecular target: T2, T113V/G121V-ecDHFR; assay: Double-mutant cycle analysis of ligand binding; conditions: A′ = T113V, B′ = G121V
M42F/G121S-ecDHFR [10] = molecular target: T9, M42F/G121S-ecDHFR (Escherichia coli, UniProt P0ABQ4, G121S/M42F); assay: Ligand-binding assay, tryptophan fluorescence titration
T9 sequence (P0ABQ4 1-159 M42F/G121S): T1 sequence (P0ABQ4 1-159 M42F/G121V) with V121S

G121V-ecDHFR [11] = molecular target: T3, G121V-ecDHFR; conditions: cited from earlier work
M42F/G121S-ecDHFR [12] = molecular target: T9, M42F/G121S-ecDHFR; assay: Double-mutant cycle analysis of ligand binding; conditions: A′ = M42F, B′ = G121S
wildtype ecDHFR [13] = molecular target: T7, wildtype ecDHFR; assay: Ligand-binding assay, tryptophan fluorescence titration
G121S-ecDHFR [14] = molecular target: T8, G121S-ecDHFR; assay: as above
T113V mutants of ecDHFR = conditions: cited from earlier work

Compound: NC(=O)C1=CN([C@@H]2O[C@H](COP(=O)(O)OP(=O)(O)OC[C@H]3O[C@@H](n4cnc5c(N)ncnc54)[C@H](OP(=O)(O)O)[C@@H]3O)[C@@H](O)[C@H]2O)C=CC1 [NADPH, nicotinamide adenine dinucleotide phosphate]
- ΔG1 (M42F/G121V-ecDHFR [1]): 8.20 kcal/mol
- ΔG2 (M42F/G121V-ecDHFR [1]): 5.69 kcal/mol
- ΔG′1 (M42F/G121V-ecDHFR [1]): 4.45 kcal/mol
- ΔG′2 (M42F/G121V-ecDHFR [1]): 1.95 kcal/mol
- ΔΔG (M42F/G121V-ecDHFR [1]): –3.75 kcal/mole
- Kd (T113V/G121V-ecDHFR [2]): 137 ± 1.94 µM
- Kd (G121V-ecDHFR [3]): 12.2 ± 1.41 µM
- Kd (M42F-ecDHFR): 33.6 ± 2.67 µM
- Kd (T113V-ecDHFR): 13.7 ± 1.82 µM
- ΔG1 (T113V/G121S-ecDHFR [4]): 5.98 kcal/mol
- ΔG2 (T113V/G121S-ecDHFR [4]): 5.12 kcal/mol
- ΔG′1 (T113V/G121S-ecDHFR [4]): 5.19 kcal/mol
- ΔG′2 (T113V/G121S-ecDHFR [4]): 4.33 kcal/mol
- ΔΔG (T113V/G121S-ecDHFR [4]): –0.79 kcal/mole
- Kd (wildtype ecDHFR [5]): 0.34 µM and 0.44 µM
- Kd (M42F/G121V-ecDHFR [6]): 74 ± 9.09 µM
- Kd (T113V/G121S-ecDHFR [7]): 77.5 ± 19.2 µM
- NADPH binding weakened (G121S-ecDHFR [8]): 10 fold
- ΔG1 (T113V/G121V-ecDHFR [9]): 5.98 kcal/mol
- ΔG2 (T113V/G121V-ecDHFR [9]): 5.69 kcal/mol
- ΔG′1 (T113V/G121V-ecDHFR [9]): 5.99 kcal/mol
- ΔG′2 (T113V/G121V-ecDHFR [9]): 5.71 kcal/mol
- ΔΔG (T113V/G121V-ecDHFR [9]): 0.02 kcal/mol
- Kd (M42F/G121S-ecDHFR [10]): 116 ± 20.1 µM
- NADPH binding weakened (G121V-ecDHFR [11]): 40 fold
- ΔG1 (M42F/G121S-ecDHFR [12]): 8.20 kcal/mol
- ΔG2 (M42F/G121S-ecDHFR [12]): 5.12 kcal/mol
- ΔG′1 (M42F/G121S-ecDHFR [12]): 6.13 kcal/mol
- ΔG′2 (M42F/G121S-ecDHFR [12]): 3.06 kcal/mol
- ΔΔG (M42F/G121S-ecDHFR [12]): –2.06 kcal/mole
- Kd (wildtype ecDHFR [13]; KD^NADPH, 5 μM ecDHFR, ΔF340nm analysis, fitted up to 100 μM NADPH): 1.23 ± 0.06 µM
- KD^NADPH weaker than previous reports (wildtype ecDHFR [13]; versus 0.34 and […]): 3∼4 fold
- Kd (G121S-ecDHFR [14]): 9.73 ± 2.4 µM

Compound: Nc1nc(=O)c2c([nH]1)NCC(CNc1ccc(C(=O)N[C@@H](CCC(=O)O)C(=O)O)cc1)=N2 [H2F, 7,8-dihydrofolate]
- decrease in H2F-binding affinity (T113V mutants of ecDHFR): 20–30 fold
